Source: patent EP0036502B1, “2-Alkyl-5-hydroxy-1,4-naphthoquinones, process for their manufacture and pharmaceutical preparations containing these compounds” (ZYMA GMBH, priority 1980, dated 1981)

System: Prostaglandinsynthetase
Experiment: Prostaglandin synthetase inhibition in vitro (method of Baumann et al.)
Format: biochemical
Conditions: concentration 10-^3 Mol/I, 1000 µM
From the text: Die Erfindung betrifft somit weiterhin die Verwendung der erfindungsgemäßen Verbindungen der allgemeinen Formel I zur Behandlung und Bekämpfung von Entzündungen sowie von allergischen, insbesondere anaphylaktischen Reaktionen. So beträgt beispieslweise die durch 2-Äthyl-5-hydroxy-1,4-naphthochinon hervorgerufene Prostaglandinsynthetase-Hemmung in vitro bei einer Konzentration von 10-^3 Mol/I 87%. Die Bestimmung der Prostaglandinsynthetase-Hemmung wurde nach J. Baumann, F. v. Bruchhausen u. G. Wurm, Naunym-Schmiedeberg's Arch. Pharmacol. 307, 73 (1979) und j. Baumann, G. Wurm u. F. v. Bruchhausen, Arch. Pharm. (Weinheim) 313,330 (1980) durchgeführt.

- Prostaglandinsynthetase-Hemmung in vitro: 87%
SMILES: CCC1=CC(=O)c2c(O)cccc2C1=O [2-Äthyl-5-hydroxy-1,4-naphthochinon]
